Tests used:
[1] = system: HT-29; assay: Antiproliferative activity against human HT-29 cells assessed as inhibition of cell growth after 72 hrs by methylene blue dye assay; format: functional, cell-based; settings: HT-29, 72 h
[2] = target: Tubulin (Bos taurus, UniProt Q6B856+Q862L2+Q862F3); assay: Inhibition of bovine brain microtubule-associated protein rich tubulin polymerization by turbidimetric assay
[3] = Antiproliferative activity against human MKN45 cells assessed as inhibition of cell growth after 72 hrs by methylene blue dye assay; format: functional, cell-based; settings: MKN-45, 72 h
[4] = Antiproliferative activity against human KB-VIN10 cells overexpressing P-gp 170/MDR assessed as inhibition of cell growth after 72 hrs by methylene blue dye assay; format: functional, cell-based; settings: KB-VIN10, 72 h
[5] = Antiproliferative activity against human H460 cells assessed as inhibition of cell growth after 72 hrs by methylene blue dye assay; format: functional, cell-based; settings: NCI-H460, 72 h
[6] = target: T1, Tubulin (UniProt P68371+Q9H4B7+P0DPH7+P68366+Q13509+Q71U36+P04350+Q3ZCM7+P07437+P68363+Q9BQE3+Q6PEY2+Q13885+Q9BVA1+Q9BUF5); assay: Displacement of [3H]colchicine from long-chain biotin-labeled tubulin (unknown origin) at 5 uM after 2 hrs by competition binding scintillation proximity assay; format: protein-complex assay; settings: Homo sapiens
[7] = target: T1, Tubulin; assay: Displacement of [3H]colchicine from long-chain biotin-labeled tubulin (unknown origin) at 1 uM after 2 hrs by competition binding scintillation proximity assay; format: protein-complex assay; settings: Homo sapiens
[8] = system: KB; assay: Antiproliferative activity against human KB cells assessed as inhibition of cell growth after 72 hrs by methylene blue dye assay; format: functional, cell-based

SMILES | IC50 [1] [µM] | IC50 [2] [µM] | IC50 [3] [µM] | IC50 [4] [µM] | IC50 [5] [µM] | inhibition [6] [%] | inhibition [7] [%] | IC50 [8] [µM]
COc1ccc(S(=O)(=O)N2CCc3cccc(-c4ccc(F)c(F)c4)c32)cc1 | 0.057 | 2.3 | 0.0555 | 0.046 | 0.046 | 72 | 52 | 0.045
COc1ccc(S(=O)(=O)N2CCc3cccc(-c4ccncc4)c32)cc1 | 0.0875 | 2.2 | 0.0695 | 0.106 | 0.101 | 72 | 54 | 0.096
COc1ccc(-c2cccc3c2N(S(=O)(=O)c2ccc(OC)cc2)CC3)cc1 | 0.277 | – | 0.211 | 0.352 | 0.301 | – | – | 0.337
COc1ccc(S(=O)(=O)N2CCc3cccc(-c4ccc(F)nc4)c32)cc1 | 0.108 | – | 0.145 | 0.151 | 0.135 | – | – | 0.143
COc1ccc(S(=O)(=O)N2CCc3cccc(-c4ccc(C#N)cc4)c32)cc1 | 0.0242 | 1.5 | 0.0172 | 0.0292 | 0.0295 | 92 | 81 | 0.0311
COc1ccc(S(=O)(=O)N2CCc3cccc(-c4ccco4)c32)cc1 | 0.0625 | 2.6 | 0.042 | 0.0792 | 0.0945 | 68 | 43 | 0.082
COc1ccc(S(=O)(=O)N2CCc3cccc(-c4cccc(F)c4)c32)cc1 | 0.119 | – | 0.0847 | 0.0924 | 0.167 | – | – | 0.0985
COc1ccc(S(=O)(=O)N2CCc3cccc(-c4ccc(F)cc4)c32)cc1 | 0.0855 | 2.5 | 0.079 | 0.0946 | 0.0955 | 73 | 59 | 0.086
COc1ccc(S(=O)(=O)N2CCc3cccc(-c4ccccc4)c32)cc1 | 0.0965 | – | 0.117 | 0.107 | 0.212 | – | – | 0.12
COc1ccc(S(=O)(=O)N2CCc3cccc(-c4ccc(N(C)C)cc4)c32)cc1 | 0.467 | – | 0.237 | 0.553 | 0.556 | – | – | 0.538
COc1ccc(S(=O)(=O)N2CCc3cccc(-c4cccnc4)c32)cc1 | 0.0763 | – | 0.0685 | 0.0845 | 0.0896 | – | – | 0.0959
COc1ccc(S(=O)(=O)N2CCc3cccc(-c4ccc([N+](=O)[O-])cc4)c32)cc1 | 0.0518 | 1.7 | 0.034 | 0.0513 | 0.0531 | 74 | 56 | 0.0525
COc1ccc(S(=O)(=O)N2CCc3cccc(-c4cccs4)c32)cc1 | 0.2 | – | 0.165 | 0.251 | 0.229 | – | – | 0.214
COc1ccc(S(=O)(=O)N2CCc3cccc(-c4ccc(O)cc4)c32)cc1 | 0.133 | – | 0.0826 | 0.123 | 0.114 | – | – | 0.129
COc1ccc(S(=O)(=O)N2CCc3cccc(-c4ccc(N)cc4)c32)cc1 | 0.3 | – | 0.162 | 0.262 | 0.288 | – | – | 0.249
COc1ccc(S(=O)(=O)N2CCc3cccc(-c4c(F)c(F)c(F)c(F)c4F)c32)cc1 | 3.9 | – | 1.78 | 4.63 | 4.75 | – | – | 4.04
COc1cc2c(c(OC)c1OC)-c1ccc(OC)c(=O)cc1[C@@H](NC(C)=O)CC2 [COLCHICINE] | – | – | – | 0.121 | – | – | – | –
COc1ccc(S(=O)(=O)N2CCc3cccc(-c4cc(OC)c(OC)c(OC)c4)c32)cc1 | 5.1 | – | 1.08 | 4.67 | 6.34 | – | – | 3.69
